This assay relates to HBV. Briefly: HBV inhibition assay in HepAD38 cells (extracellular HBV DNA by direct qPCR). The format is cell-based. To be noted: 96 hours, relative to non-treated reference; for inhibition at 1 µM / inhibition at 0.5 µM / inhibition at 0.1 µM: Hepatitis B virus, read-out: Anti HBV Activity (conc µM); for inhibition at 0.5 µM: compound at 0.5 µM; for inhibition at 0.1 µM: compound at 0.1 µM. In outline: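 HepAD38 cells (HepG2, tetracycline-off HBV) induced in tetracycline-free medium, treated 96 h at 37 °C with compound, 0.5% DMSO. Extracellular HBV DNA quantified by direct SYBR qPCR of lysed supernatant, as % of untreated; EC50 from 8-point 1:2 curves; cytotoxicity by CellTiter-Blue.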
Background: Quantitative PCR measures a nucleic acid by following its amplification.

Turning to `CC1(C)Nc2ccc(C(=O)Nc3ccc(F)c(F)c3)cc2S(=O)(=O)N1` [Example E120, N-(3,4-difluorophenyl)-3,3-dimethyl-3,4-dihydro-2H-benzo[e][1,2,4]thiadiazine-7-carboxamide 1,1-dioxide], where the note is “compound at 1 µM”, the inhibition at 1 µM was over 50%.

As to `O=C(Nc1cc(F)c(F)c(F)c1)c1cnc2c(c1)S(=O)(=O)N([C@H]1CC[C@H](O)CC1)C(=O)N2` [Example E121, trans-2-(4-hydroxycyclohexyl)-3-oxo-N-(3,4,5-trifluorophenyl)-3,4-dihydro-2H-pyrido[2,3-e][1,2,4]thiadiazine-7-carboxamide 1,1-dioxide], the inhibition at 0.5 µM is under 50%.

Consider `Cc1cc2c(cc1C(=O)Nc1cc(F)c(F)c(F)c1)S(=O)(=O)N([C@H]1CC[C@H](O)CC1)C(=O)N2` [Example E122, trans-2-(4-hydroxycyclohexyl)-6-methyl-3-oxo-N-(3,4,5-trifluorophenyl)-3,4-dihydro-2H-benzo[e][1,2,4]thiadiazine-7-carboxamide 1,1-dioxide], for which the inhibition at 0.1 µM was over 50%.

Turning to `O=C(Nc1ccc(F)c(Cl)c1)c1ccc2c(c1)S(=O)(=O)N([C@H]1CC[C@H](O)CC1)C(=O)N2` [Example E123, N-(3-chloro-4-fluorophenyl)-2-((1r,4r)-4-hydroxycyclohexyl)-3-oxo-3,4-dihydro-2H-benzo[e][1,2,4]thiadiazine-7-carboxamide 1,1-dioxide], the inhibition at 0.1 µM was over 50%.

Regarding `O=C(Nc1cc(F)c(F)c(F)c1)c1ccc2c(c1)S(=O)(=O)N([C@H]1C[C@@H](O)C1)C(=O)N2` [Example E124, Cis-2-(3-hydroxycyclobutyl)-3-oxo-N-(3,4,5-trifluorophenyl)-3,4-dihydro-2H-benzo[e][1,2,4]thiadiazine-7-carboxamide 1,1-dioxide], the inhibition at 0.5 µM was over 50%.

Consider `O=C(Nc1cc(F)c(F)c(F)c1)c1ccc2c(c1)S(=O)(=O)N([C@H]1C[C@H](O)C1)C(=O)N2` [Example E125, Trans-2(3-hydroxycyclobutyl)-3-oxo-N-(3,4,5-trifluorophenyl)-3,4-dihydro-2H-benzo[e][1,2,4]thiadiazine-7-carboxamide 1,1-dioxide], for which the inhibition at 0.5 µM is over 50%.

With `O=C(Nc1cc(F)c(F)c(F)c1)c1ccc2c(c1)S(=O)(=O)N([C@H]1C[C@@H](O)C1)CN2` [Example E126, Cis-2-(3-hydroxycyclobutyl)-N-(3,4,5-trifluorophenyl)-3,4-dihydro-2H-benzo[e][1,2,4]thiadiazine-7-carboxamide 1,1-dioxide], the inhibition at 0.5 µM was under 50%.

Consider `O=C(Nc1cc(F)c(F)c(F)c1)c1ccc2c(c1)S(=O)(=O)N([C@H]1C[C@H](O)C1)CN2` [Example E127, Trans-2-(3-hydroxycyclobutyl)-N-(3,4,5-trifluorophenyl)-3,4-dihydro-2H-benzo[e][1,2,4]thiadiazine-7-carboxamide 1,1-dioxide], for which the inhibition at 0.5 µM is under 50%.

`O=C(Nc1cc(F)c(F)c(F)c1)c1ccc2c(c1)S(=O)(=O)N(c1cccnc1)C(=O)N2` [Example E128, 3-oxo-2-(pyridin-3-yl)-N-(3,4,5-trifluorophenyl)-3,4-dihydro-2H-benzo[e][1,2,4]thiadiazine-7-carboxamide 1,1-dioxide]: the inhibition at 0.5 µM is under 50%.

For `O=C(Nc1ccc(F)c(C(F)F)c1)c1ccc2c(c1)S(=O)(=O)N([C@H]1CC[C@H](O)CC1)C(=O)N2` [Example E131, N-(3-(difluoromethyl)-4-fluorophenyl)-2-((1r,4r)-4-hydroxycyclohexyl)-3-oxo-3,4-dihydro-2H-benzo[e][1,2,4]thiadiazine-7-carboxamide 1,1-dioxide], the inhibition at 0.5 µM was over 50%.

As to `Cc1cc(NC(=O)c2ccc3c(c2)S(=O)(=O)N([C@H]2CC[C@H](O)CC2)C(=O)N3)ccc1F` [Example E132, N-(4-fluoro-3-methylphenyl)-2-((1r,4r)-4-hydroxycyclohexyl)-3-oxo-3,4-dihydro-2H-benzo[e][1,2,4]thiadiazine-7-carboxamide 1,1-dioxide], the inhibition at 0.5 µM was over 50%.

On to `CN1CCC(N2C(=O)Nc3ccc(C(=O)Nc4cc(F)c(F)c(F)c4)cc3S2(=O)=O)CC1` [Example E133, 2-(1-methylpiperidin-4-yl)-3-oxo-N-(3,4,5-trifluorophenyl)-3,4-dihydro-2H-benzo[e][1,2,4]thiadiazine-7-carboxamide 1,1-dioxide], for which, where the note is “compound at 1 µM”, the “Anti HBV Activity (conc µM)” value is on record as “A (1) (HBV inhibition greater than 50% at the concentration indicated in the table)”.

With `O=C(Nc1cc(F)c(F)c(F)c1)c1ccc2c(c1)S(=O)(=O)N(C1CC=C(CO)CC1)C(=O)N2` (stereo not shown) [Example E134, 2-(4-(hydroxymethyl)cyclohex-3-en-1-yl)-3-oxo-N-(3,4,5-trifluorophenyl)-3,4-dihydro-2H-benzo[e][1,2,4]thiadiazine-7-carboxamide 1,1-dioxide], the inhibition at 0.5 µM was over 50%.

Take `O=C(Nc1cc(F)c(F)c(F)c1)c1ccc2c(c1)S(=O)(=O)NC(CO)CO2` (stereo not shown) [Example E135, 3-(hydroxymethyl)-N-(3,4,5-trifluorophenyl)-3,4-dihydro-2H-benzo[b][1,4,5]oxathiazepine-8-carboxamide 1,1-dioxide]: the inhibition at 1 µM (compound at 1 µM) was under 50%.

For `O=C(Nc1cc(F)c(F)c(F)c1)c1ccc2c(c1)S(=O)(=O)N[C@@H]1CCC[C@@H]1N2` [Example E136, (3aR,10aS)-N-(3,4,5-trifluorophenyl)-2,3,3a,4,10,10a-hexahydro-1H-benzo[f]cyclopenta[c][1,2,5]thiadiazepine-7-carboxamide 5,5-dioxide], the inhibition at 1 µM (compound at 1 µM) was under 50%.

Consider `O=C(Nc1cc(F)c(F)c(F)c1)c1ccc2c(c1)S(=O)(=O)N[C@H]1CCC[C@H]1N2` [Example E137, (3aS,10aR)-N-(3,4,5-trifluorophenyl)-2,3,3a,4,10,10a-hexahydro-1H-benzo[f]cyclopenta[c][1,2,5]thiadiazepine-7-carboxamide 5,5-dioxide], for which, for the setting “compound at 1 µM”, the inhibition at 1 µM was under 50%.

Take `O=C(Nc1cc(F)c(F)c(F)c1)c1ccc2c(c1)S(=O)(=O)Nc1ncnn1-2` [Example E138, N-(3,4,5-trifluorophenyl)-4H-benzo[e][1,2,4]triazolo[5,1-c][1,2,4]thiadiazine-7-carboxamide 5,5-dioxide]: the inhibition at 1 µM (compound at 1 µM) was under 50%.

Turning to `O=C(Nc1cc(F)c(F)c(F)c1)c1ccc2c(c1)S(=O)(=O)NCC(CO)O2` (stereo not shown) [Example E139, 4-(hydroxymethyl)-N-(3,4,5-trifluorophenyl)-3,4-dihydro-2H-benzo[b][1,4,5]oxathiazepine-8-carboxamide 1,1-dioxide], the inhibition at 1 µM (compound at 1 µM) was under 50%.

`O=C(Nc1cc(F)c(F)c(F)c1)c1ccc2c(c1)S(=O)(=O)NC1(COC1)CO2` [Example E140, N-(3,4,5-trifluorophenyl)-2H,4H-spiro[benzo[b][1,4,5]oxathiazepine-3,3'-oxetane]-8-carboxamide 1,1-dioxide]: the inhibition at 1 µM (compound at 1 µM) is under 50%.

(Values after patent publication EP3597653A1, “CYCLIC INHIBITORS OF HEPATITIS B VIRUS” (IRBM S.P.A., priority 2018, dated 2020).)
